The values below come from ChEMBL document CHEMBL2010676, “Metabolites of Microcystis aeruginosa bloom material from Lake Kinneret, Israel” (J Nat Prod, 2012).

The structures appear in SMILES notation. Activity calls are given as the source filed them. The rule behind the calls is not given here.

The target in assay [1] is Prothrombin (Homo sapiens) (UniProt P00734). The experiment in a line: Inhibition of thrombin at 45.5 uM.
Assay [2] can be described thus: Inhibition of elastase at 45.5 uM.
Assay [3] is described as follows: Inhibition of trypsin.
Assay [4] is described as follows: Inhibition of chymotrypsin at 45.5 uM.
Assay [5] can be described thus: Inhibition of chymotrypsin.
Assay [6] can be described thus: Inhibition of trypsin at 45.5 uM.
Assay [7] deals with Prothrombin (Homo sapiens) (UniProt P00734). As to the kind of experiment: Induction of thrombin activity at 45.5 uM.
The target of assay [8] is T1, Aminopeptidase N (Bos taurus) (UniProt P79098).
T1 sequence (whole entry): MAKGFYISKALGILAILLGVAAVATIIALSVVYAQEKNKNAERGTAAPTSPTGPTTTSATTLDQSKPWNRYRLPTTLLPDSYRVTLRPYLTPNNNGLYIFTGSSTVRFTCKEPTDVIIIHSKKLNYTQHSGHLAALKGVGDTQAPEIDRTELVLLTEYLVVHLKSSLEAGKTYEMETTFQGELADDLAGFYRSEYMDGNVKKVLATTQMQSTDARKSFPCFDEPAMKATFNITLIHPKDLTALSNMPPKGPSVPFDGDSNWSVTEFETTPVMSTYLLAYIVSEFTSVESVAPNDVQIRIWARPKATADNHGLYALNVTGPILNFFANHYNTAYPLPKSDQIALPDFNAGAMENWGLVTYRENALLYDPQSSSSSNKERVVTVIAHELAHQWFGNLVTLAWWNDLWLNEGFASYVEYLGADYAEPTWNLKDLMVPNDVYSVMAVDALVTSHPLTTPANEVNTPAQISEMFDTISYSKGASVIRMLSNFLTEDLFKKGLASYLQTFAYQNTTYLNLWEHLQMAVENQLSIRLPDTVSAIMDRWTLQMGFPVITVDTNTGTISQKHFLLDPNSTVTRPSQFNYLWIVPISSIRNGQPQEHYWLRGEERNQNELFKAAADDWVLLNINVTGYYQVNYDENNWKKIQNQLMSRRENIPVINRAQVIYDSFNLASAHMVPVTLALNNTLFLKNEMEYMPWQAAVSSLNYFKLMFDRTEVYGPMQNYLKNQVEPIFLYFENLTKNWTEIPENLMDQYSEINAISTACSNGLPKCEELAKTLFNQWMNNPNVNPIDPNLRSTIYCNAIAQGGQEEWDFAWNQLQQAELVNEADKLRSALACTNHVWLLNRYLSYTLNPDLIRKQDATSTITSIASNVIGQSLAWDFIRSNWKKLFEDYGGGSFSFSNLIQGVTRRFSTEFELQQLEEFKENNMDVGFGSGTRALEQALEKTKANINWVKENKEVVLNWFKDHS
As to the kind of experiment: Inhibition of bovine amino peptidase N at 45.5 uM.

The subject of another assay is HCT-116. As to the kind of experiment: Cytotoxicity against human HCT116 cells at 1.6 uM. Type of assay: functional, cell-based.

As a reminder, the inhibition is the drop in the measured response relative to a control, in per cent. What is called IC50 is the point on the concentration scale where inhibition reaches its midpoint.

For the compound `CC(C)C[C@@H](NC(=O)[C@H](O)Cc1ccc(O)cc1)C(=O)N[C@@H](Cc1ccccc1)C(=O)NCCCCNC(=N)N`, the inhibition result in assay [1], in assay [2] and in [4] was “inactive” throughout. The IC50 in [3] amounted to 45.5 µM.

Take `CC[C@@H](C)[C@H]1C(=O)N(C)[C@@H](Cc2ccccc2)C(=O)N[C@@H](C(C)C)C(=O)O[C@H](C)[C@H](NC(=O)[C@H](CCC(N)=O)NC(=O)[C@H](O)Cc2ccc(O)cc2)C(=O)N[C@@H](Cc2ccc(O)cc2)C(=O)N[C@H]2CC[C@@H](O)N1C2=O` (relative stereo): the IC50 in assay [5] was 0.26 µM. Besides, the inhibition entry in [6], in assay [1] and in assay [2] was “inactive” in each case.

As to `N=C(N)NCCCCNC(=O)[C@H]1C[C@H]2CC[C@@H](O)C[C@H]2N1C(=O)[C@@H](Cc1ccccc1)NC(=O)[C@H](O)Cc1ccc(O)cc1`, in assay [1], the inhibition was < 50%. The inhibition result in assay [2] and in assay [4] was “inactive” in each case. In assay [3], this compound had a 50% inhibitory concentration (IC50) of 1.3 µM.

For `N=C(N)NCCCCNC(=O)[C@H]1C[C@H]2CC[C@@H](O)C[C@H]2N1C(=O)[C@@H](Cc1ccccc1)NC(=O)[C@@H](O)Cc1ccc(O)cc1`, the inhibition entry in assay [2] and in [4] was “inactive” throughout. Half-maximal inhibition in [3] (IC50) required 1.9 µM. The compound also gave an Activity in assay [7] of 30%.

On to `CC(=O)O[C@@H]1CC[C@@H]2C[C@H](C(N)=O)N(C(=O)[C@@H](Cc3ccc(O)cc3)NC(=O)[C@@H](O)Cc3ccc(O)cc3)[C@@H]2C1`, for which the inhibition entry in assay [1], in [2] and in assay [4] was “inactive” each time. The same compound gave an IC50 in assay [3] of 45.5 µM.

Consider `CC(OC(=O)C(CCCNC(=N)N)[N+](C)(C)C)C(OS(=O)(=O)[O-])c1ccc(OS(=O)(=O)O)c(COS(=O)(=O)O)c1` (stereo not drawn), for which the inhibition entry in assay [6], in assay [1] and in assay [8] was “inactive” each time. For the same compound, in the assay with HCT-116, the result was inactive.

Consider `CC(=O)O[C@H](Cc1ccc(O)cc1)C(=O)N[C@H](Cc1ccccc1)C(=O)N1[C@@H](C(=O)NCCCCNC(=N)N)C[C@H]2CC[C@@H](O)C[C@H]21`, for which the inhibition in assay [1] is < 50%. In addition, the inhibition entry in assay [2] and in assay [4] was “inactive” throughout. Further, in [3], the concentration for half-maximal inhibition (IC50) came out at 19.9 µM.
